Each block holds one substance with its values, some of them ahead of it.
Key:
IL-15Rα:Fc [1] = assay: SPR (BIAcore), IL-15Rα:Fc captured by immobilised goat anti-human Fc
CTLL-2 cells = assay: Potency assay based on STAT5 phosphorylation in CTLL-2 cells; type: cell-based, murine; details: for EC50 (ng/mL) CTLL-2 pSTAT5: Table 2B
Method: In the phospho-STAT5 assay following receptor binding, downstream cell signaling can then activate Signal Transducer and Activator of Transcription 5 (STAT5) through phosphorylation to promote gene expression to induce cell proliferation. The activation of phosho-STAT5 is measured in CTLL-2 cells, a murine T lymphocyte cell line, using the phospho-STAT5/total STAT5 multiplexed assay (Meso Scale Discovery, MD) in response to sample and reference treatment for ˜10 minutes.
One day prior to the assay, CTLL-2 cells were split into fresh growth medium [RPMI 1640 supplemented with 10% FBS, 10% T-cell culture supplement (catalog #354115, Corning, Inc., Tewksbury, MA), 2 mM L-glutamate, and 1 mM sodium pyruvate]. On the day of assay, cells were pre-incubated in assay medium (RPMI 1640 supplemented with 1% FBS, 2 mM L-glutamate, and 1 mM sodium pyruvate) for at least four hours, and then plated in assay medium in a 96-well plate at 50,000 cells/well. Dilutions of the test article were prepared in an appropriate buffer immediately prior to assay. Stimulation of CTLL-2 cells was initiated by the transfer of 25X test article solutions to triplicate wells containing CTLL-2 cells. Plates were incubated at 37° C., 5% CO2 for 10 minutes, and the reaction was stopped by cell lysis. Detection of phospho-STAT5 and total STAT5 protein levels in cell lysates was performed using the MSD Phospho (Tyr694)/Total STATa,b Whole Cell Lysate Kit (Meso Scale Discovery, MD).

IL-15Rα = IL-15Rα (Homo sapiens, UniProt Q13261); assay: Receptor affinity for IL-15Rα by surface plasmon resonance (BIAcore); type: binding; details: Table 2B; read-out: IL-15Rα KD
Method: The affinities of IL-15 and exemplary long acting rIL-15 receptor agonists were measured using Surface Plasmon Resonance (“SPR”) using a BIAcore™ SPR system. Briefly, the surface of a Biacore CM5 sensor chip was activated using a 1:1 mixture of NHS: EDC to generate active NHS esters. Goat anti-human Fc antibody was covalently attached to the surface by injecting it for five minutes in 10 mM sodium acetate (pH 4). There were approximately 8000 RU of antibodies bound to the surface. Any remaining NHS ester was then quenched with ethanolamine.
At the initiation of each injection cycle, IL-15-Rα-Fc was captured on a sensor chip channel by a five-minute injection step in PBSP. Typically, 150-200 RU of receptors were bound on the surface.
(§1) Long acting rIL-15 receptor agonist test articles were diluted to 10 µM in PBS (containing 0.05% Tween 20 and 0.1 mg/ml BSA). A series of 3-fold dilutions were made and injected onto a sensor chip which was coated with IL-15Rα. The affinities were measured by determining the ka and kd rates separately, and the ratio between kd and ka was used to calculate the Kd values.
The affinities of exemplary long-acting IL-15 receptor agonists (test articles) for the IL-15 α receptor were measured and compared to IL-15. Affinity was measured by BIAcore using IL-15Rα:Fc captured by immobilized anti-Fc.
as §1, with “The” for “Long acting rIL-15 receptor agonist”, “μM” for “µM”, “between ka and” for “between”, “kd” for “kd and ka”, “[…]” for “Kd”

human PBMCs = assay: HuPBMC-pStat5 assay (flow cytometry, lymphocyte subpopulations); type: cell-based; details: for EC50 (ng/ml) pSTAT5 CD56bright NK: Table 3, CD56bright NK cells
Method: The potency of IL-15 or long acting IL-15 R agonists on various human lymphocyte subpopulations was determined by phospho-STAT5 (Y694) dose response assay. Frozen human PBMCs from multiple donors were supplied by AllCells. 1×10^6 cells/100ul were cultured in complete RPMI media for 2 hours and then incubated with the indicated concentrations (10,000ng/ml-0.001ng/ml serial dilutions) of IL-15 or conjugates for 20minutes at 37c. The cells were then fixed (using BD Cytofix) and permeabilized (using 100% pre-chilled methanol) and stained with antibodies for CD3, CD4, CD8, CD4-Tregs (CD4+CD25+Foxp3+), CD56 and phosphorylated STAT5 (Y694) before analysis by flow cytometry. Concentration-response relationships were used to calculate the EC50 values.
Assessment of in-vitro activity of exemplary long-acting IL-15 receptor agonists (e.g., Conjugates 1, 3 and 5) was carried out by investigating signaling in NK cell subsets of human PBMCs as shown in FIGS. 10A (CD56bright cells) and 10B (CD56dim cells). STAT5 phosphorylation was evaluated as previously described for assessing IL-15 signaling activity of the long acting IL-15 receptor agonists.
A second study was conducted to investigate/compare the pStat5 response of human PBMCs obtained from two donors (CD3, CD4, CD8, CD56 (bright and dim) and CD4-Tregs (CD25+Foxp3+)) to IL-15, Conjugate 1 and Conjugate 5. An […] dose response was examined using a 10-fold dilution with a dose range of 0.001-10000 ng/ml and a 20 min stimulation. Each of the test articles was diluted in IL-15 buffer+0.1% BSA.
Assessment of in vitro activity of Conjugate 1 was carried out by investigating NK and CD8 JAK/STAT signaling after treatment of human PBMCs with IL-15 or Conjugate 1 at a dose range of 0.001-10000 ng/ml. STAT5 phosphorylation was assessed as previously described.

[2] = PK (MRT) of long-acting IL-15 receptor agonists (Table 2B); type: in vivo; details: species not stated
IL-15Rα:Fc [3] = assay: SPR (BIAcore), IL-15Rα:Fc captured by immobilised goat anti-human Fc, KD from kd/ka
IL-15Rα:Fc [4] = assay: SPR (BIAcore), IL-15Rα:Fc captured by immobilised goat anti-human Fc, test article injected in 3-fold dilutions from 10 µM

IL-15Rα, sequence (Q13261 31-205 limits assumed): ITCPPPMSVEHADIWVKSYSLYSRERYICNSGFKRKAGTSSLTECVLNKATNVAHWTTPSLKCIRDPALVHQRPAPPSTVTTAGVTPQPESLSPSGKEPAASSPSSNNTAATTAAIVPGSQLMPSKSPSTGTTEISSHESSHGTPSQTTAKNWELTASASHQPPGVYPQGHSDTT
IL-15Rα:Fc, sequence (Q13261 31-205): as the sequence (Q13261 31-205 limits assumed) above

Substance: [Mono-PEG2-RU-ButryALD-40K]-IL-15 (Conjugate 3) (from UniProt P40933 49-162) (ligand)
Kd (IL-15Rα:Fc [1]): 411 pM

Substance: mono-mPEG-ButryALD-40k-IL-15 (Conjugate 5) (from UniProt P40933 49-162) (ligand)
Kd (IL-15Rα:Fc [1]): 144 pM

Substance: [Mono-PEG2-RU-ButryALD-40K]-IL-15 [Conjugate 3]
Kd (IL-15Rα): 411 pM
EC50 (ng/mL) CTLL-2 pSTAT5 (CTLL-2 cells): 16.80 ng/mL
EC50 (ng/ml) pSTAT5 CD56bright NK (human PBMCs): 69.76 ng/ml
PK (MRT) [2]: 30 h

Substance: mono-mPEG-ButryALD-40k-IL-15 [Conjugate 5]
Kd (IL-15Rα): 144 pM
EC50 (ng/mL) CTLL-2 pSTAT5 (CTLL-2 cells): 1.45 ng/mL
EC50 (ng/ml)-% pSTAT5 CD3 donor1 (human PBMCs; CD3 cells, donor1, 20 min stimulation): 1.3 ng/ml
EC50 (ng/ml)-% pSTAT5 CD3 donor2 (human PBMCs; CD3 cells, donor2, 20 min stimulation): 1.7 ng/ml
EC50 (ng/ml)-% pSTAT5 Treg donor1 (human PBMCs; CD4-Treg cells, donor1): 0.44 ng/ml
EC50 (ng/ml)-% pSTAT5 Treg donor2 (human PBMCs; CD4-Treg cells, donor2): 0.45 ng/ml
EC50 (ng/ml)-% pSTAT5 CD4 donor1 (human PBMCs; CD4 cells, donor1): 1.3 ng/ml
EC50 (ng/ml)-% pSTAT5 CD4 donor2 (human PBMCs; CD4 cells, donor2): 1.14 ng/ml
EC50 (ng/ml)-% pSTAT5 CD8 donor1 (human PBMCs; CD8 cells, donor1): 1.4 ng/ml
EC50 (ng/ml)-% pSTAT5 CD8 donor2 (human PBMCs; CD8 cells, donor2): 2.5 ng/ml
EC50 (ng/ml)-% pSTAT5 CD56bright donor1 (human PBMCs; CD56bright cells, donor1): 5.1 ng/ml
EC50 (ng/ml)-% pSTAT5 CD56bright donor2 (human PBMCs; CD56bright cells, donor2): 4.5 ng/ml
EC50 (ng/ml)-% pSTAT5 CD56dim donor1 (human PBMCs; CD56dim cells, donor1): 16.48 ng/ml
EC50 (ng/ml)-% pSTAT5 CD56dim donor2 (human PBMCs; CD56dim cells, donor2): 27.12 ng/ml
EC50 (ng/ml) pSTAT5 CD56bright NK (human PBMCs): 32.26 ng/ml
EC50 (ng/ml)-% pSTAT5 CD3 (human PBMCs; Table 7 Summary Table, CD3): 1.3 ng/ml
EC50 (ng/ml)-% pSTAT5 CD4 (human PBMCs; Table 7 Summary Table, CD4): 1.3 ng/ml
EC50 (ng/ml)-% pSTAT5 CD8 (human PBMCs; Table 7 Summary Table, CD8): 1.4 ng/ml
EC50 (ng/ml)-% pSTAT5 CD56bright (human PBMCs; Table 7 Summary Table, CD56bright): 5.1 ng/ml
EC50 (ng/ml)-% pSTAT5 CD56dim (human PBMCs; Table 7 Summary Table, CD56dim): 16.48 ng/ml
EC50 (ng/ml)-% pSTAT5 Treg (human PBMCs; Table 7 Summary Table, Treg): 0.44 ng/ml
IL-15 more potent than conjugate in inducing CD3, CD4, CD8 and Treg cells (human PBMCs; Table 7 data): 5-8 fold
IL-15 more potent than conjugate in inducing CD56bright and CD56dim cells (human PBMCs; Table 7 data): 40-60 fold
EC50 (ng/ml)-MFI CD3 donor1 (human PBMCs; pSTAT5 MFI, CD3 cells, donor1): 84.73 ng/mL
EC50 (ng/ml)-MFI CD3 donor2 (human PBMCs; pSTAT5 MFI, CD3 cells, donor2): 154.2 ng/mL
EC50 (ng/ml)-MFI Treg donor1 (human PBMCs; pSTAT5 MFI, CD4-Treg cells, donor1): 3.5 ng/mL
EC50 (ng/ml)-MFI Treg donor2 (human PBMCs; pSTAT5 MFI, CD4-Treg cells, donor2): 5.4 ng/mL
EC50 (ng/ml)-MFI CD4 donor1 (human PBMCs; pSTAT5 MFI, CD4 cells, donor1): 84.21 ng/mL
EC50 (ng/ml)-MFI CD4 donor2 (human PBMCs; pSTAT5 MFI, CD4 cells, donor2): 98.18 ng/mL
EC50 (ng/ml)-MFI CD8 donor1 (human PBMCs; pSTAT5 MFI, CD8 cells, donor1): 53.7 ng/mL
EC50 (ng/ml)-MFI CD8 donor2 (human PBMCs; pSTAT5 MFI, CD8 cells, donor2): 204.6 ng/mL
EC50 (ng/ml)-MFI CD56bright donor1 (human PBMCs; pSTAT5 MFI, CD56bright cells, donor1): 24.86 ng/mL
EC50 (ng/ml)-MFI CD56bright donor2 (human PBMCs; pSTAT5 MFI, CD56bright cells, donor2): 56.9 ng/mL
EC50 (ng/ml)-MFI CD56dim donor1 (human PBMCs; pSTAT5 MFI, CD56dim cells, donor1): 97.51 ng/mL
EC50 (ng/ml)-MFI CD56dim donor2 (human PBMCs; pSTAT5 MFI, CD56dim cells, donor2): 283.4 ng/mL
PK (MRT) [2]: 25 h

Substance: Recombinant human IL-15 (rIL-15), SEQ ID NO: 1 (from UniProt P40933 49-162) (ligand)
Kd (IL-15Rα:Fc [1]): 258 pM
Kd (IL-15Rα:Fc [3]): 258 pM
koff (IL-15Rα:Fc [4]): 0.000149 s⁻¹
kon (IL-15Rα:Fc [4]): 578000 M⁻¹ s⁻¹

The next lines start with the values.

average EC50, STAT5 phosphorylation in CTLL-2 cells (CTLL-2 cells; 10-minute treatment, control): 0.00027 µg/mL
Substance: recombinant human IL-15: recombinant human IL-15 obtained from PeproTech, served as the control in the CTLL-2 assay [reference compound]

Kd (IL-15Rα:Fc [1]): 215 pM
Substance: mono-PEG2-RU-ButryALD-20K]-IL-15 (Conjugate 4) (from UniProt P40933 49-162) (ligand)

Kd (IL-15Rα): 215 pM
EC50 (ng/mL) CTLL-2 pSTAT5 (CTLL-2 cells): 6.21 ng/mL
Substance: mono-PEG2-RU-ButryALD-20K]-IL-15 [Conjugate 4]

From US20240424115A1, “LONG-ACTING INTERLEUKIN-15 RECEPTOR AGONISTS AND RELATED IMMUNOTHERAPEUTIC COMPOSITIONS AND METHODS” (Nektar Therapeutics, priority 2017, published 2024)
